Assay results published in patent publication US6414004B1 (priority 1998, dated 2002).

Tests used:
HEp2 cells = assay: Cytotoxicity, HEp2 cell proliferation (microscopy, MTT test); type: cell-based; settings: 48-72 h incubation at 37° C.
Description: (§1) The cytotoxicity of each substance was determined by direct observation under microscope, and mitochondrial dehydrogenases activities were assayed according to the MTT test (F. Denizot et al., Immunol. Methods, 1986, 89, 271).
(§2) The concentration of compound which, after 48-72 h of incubation at 37° C., inhibited by 50% the cell proliferation was defined as cytotoxic dose 50% (CD50).

HeLa cells = assay: Cytotoxicity, HeLa cell proliferation (microscopy, MTT test); type: cell-based; settings: 48-72 h incubation at 37° C.
Description: as §1, §2

[1] = system: Polio 1 (Brunhilde strain); type: cell-based; settings: Polio 1, plaque reduction
ECHO 9 (ATCC: VR-133) = assay: Antiviral activity, direct inhibition of plaque number; type: cell-based; settings: ECHO 9, plaque reduction; read-out: Concentration inhibiting by 100% viral replication
[2] = system: Measles (Edmonston strain); assay: as above; type: cell-based; settings: Measles morbillivirus, read-out: Concentration inhibiting by 100% viral replication
[3] = system: Coxsackie B1 (ATCC: VR-28); assay: as above; type: cell-based; settings: Coxsackie B1, plaque reduction; read-out: Concentration inhibiting by 100% viral replication
HRV-2 = assay: Rhinovirus cytopathic effect reduction in HeLa-Ohio cells (MTT test); type: cell-based; settings: HRV-2, HeLa-Ohio cells
HRV-9 = assay: as above; type: cell-based; settings: HRV-9, HeLa-Ohio cells
HRV-15 = assay: as above; type: cell-based; settings: HRV-15, HeLa-Ohio cells
HRV-29 = assay: as above; type: cell-based; settings: HRV-29, HeLa-Ohio cells
HRV-70 = assay: as above; type: cell-based; settings: Enterovirus, HRV70; HRV-70, HeLa-Ohio cells; read-out: Concentration inhibiting by 100% viral replication
HRV-86 = assay: as above; type: cell-based; settings: Enterovirus, HRV86; HRV-86, HeLa-Ohio cells; read-out: Concentration inhibiting by 100% viral replication
HRV-89 = assay: as above; type: cell-based; settings: HRV-89, HeLa-Ohio cells
HRV-1B = assay: as above; type: cell-based
HRV-14 = assay: Rhinovirus cytopathic effect reduction in HeLa-Ohio cells (MTT test); type: cell-based; settings: HRV-14, HeLa-Ohio cells

| SMILES | Concentration inhibiting by 50% HEp2 cell proliferation: CD50 (HEp2 cells) [µM] | Concentration inhibiting by 50% HeLa cell proliferation: CD50 (HeLa cells) [µM] | Concentration inhibiting by 100% viral replication [1] [µM] | IC100 (ECHO 9 (ATCC: VR-133)) [µM] | IC100 [2] [µM] | IC100 [3] [µM] | Concentration inhibiting by 100% viral replication (HRV-2) [µM] | Concentration inhibiting by 100% viral replication (HRV-9) [µM] | Concentration inhibiting by 100% viral replication (HRV-15) [µM] | Concentration inhibiting by 100% viral replication (HRV-29) [µM] | IC100 (HRV-70) [µM] | IC100 (HRV-86) [µM] | Concentration inhibiting by 100% viral replication (HRV-89) [µM] | Concentration inhibiting by 100% viral replication (HRV-1B) [µM] | melting point [°C] | Concentration inhibiting by 100% viral replication (HRV-14) [µM] |
| --- | --- | --- | --- | --- | --- | --- | --- | --- | --- | --- | --- | --- | --- | --- | --- | --- |
| CSc1noc(-c2ccc(OCCc3ccccc3)cc2)c1C#N [ON-6, 3-Methylthio-5-[4-(2-phenyl-1-ethoxy)-phenyl]-4-isoxazolecarbonitrile] | > 20 | > 20 | 0.2 | 0.2 | 1 | 10 | 4 | 8 | 6 | 2 | 10 | 6 | 2 | 5 |  |  |
| CSc1noc(-c2ccc(OCCCc3ccccc3)cc2)c1C#N [ON-7, 3-Methylthio-5-[4-(3-phenyl-1-propoxy)-phenyl]-4-isoxazolecarbonitrile] | > 25 | > 25 | 0.4 | 0.2 | 10 | 0.6 |  |  |  | 5 | 5 | 5 | 5 | 5 | 99 to 100 |  |
| CSc1noc(-c2ccc(OCCOc3ccccc3)cc2)c1C#N [ON-8, 3-Methylthio-5-[4-(2-phenoxy-1-ethoxy)-phenyl]-4-isoxazolecarbonitrile] | > 25 | > 25 | 10 | 0.2 |  | 10 |  |  |  |  | 5 | 5 | 5 | 5 | 128 to 131 |  |
| CSc1noc(-c2ccc(OCCCOc3ccccc3)cc2)c1C#N [ON-9, 3-Methylthio-5-[4-(3-phenoxy-1-propoxy)-phenyl]-4-isoxazolecarbonitrile] | 20 | 20 |  | 0.1 | 10 | 1 |  |  |  |  | 5 | 5 | 5 | 10 | 121 to 123 |  |
| CSc1noc(-c2ccc(OCCCCOc3ccccc3)cc2)c1C#N [ON-10, 3-Methylthio-5-[4-(4-phenoxy-1-butoxy)-phenyl]-4-isoxazolecarbonitrile] | 10 | 10 |  | 1 | 0.02 | 0.02 |  |  |  | 1 | 1 | 1 | 1 | 2 | 113 to 114 | 1 |
| CSc1noc(-c2ccc(OCCOc3ccc([N+](=O)[O-])cc3)cc2)c1C#N [ON-11, 3-Methylthio-5-[4-[2-(4-nitrophenoxy)ethoxy]phenyl]-4-isoxazolecarbonitrile] | 25 | 10 |  | 4 | 10 | 10 |  |  |  |  | 8 | 2 |  |  | 170 to 171 |  |
| CSc1noc(-c2ccc(OCCOc3ccc(C)cc3)cc2)c1C#N [ON-12, 3-Methylthio-5-[4-[2-(4-methylphenoxy)ethoxy]phenyl]-4-isoxazolecarbonitrile] | > 25 | > 25 | 1 | 0.06 | 10 | 10 |  |  |  |  | 5 | 5 | 5 |  | 139 to 140 |  |
| CCOC(=O)c1ccc(OCCOc2ccc(-c3onc(SC)c3C#N)cc2)cc1 [ON-13, Ethyl-4-[[2-[4-(3-methylthio-4-cyano-5-isoxazolyl)-phenoxy]-ethyl]-oxy]benzoate] | 25 | 10 | 10 |  | 0.2 | 0.1 |  |  |  |  | 1 | 1 |  |  | 162 to 164 | 2 |
| CSc1noc(-c2ccc(OCCOc3ccc(Br)cc3)cc2)c1C#N [ON-14, 3-Methylthio-5-[4-[2-(4-bromophenoxy)ethoxy]phenyl]-4-isoxazolecarbonitrile] | > 25 | 10 | 1 | 0.06 | 0.2 | 0.06 |  |  |  |  | 2 | 2 | 2 |  | 156 to 157 | 2 |
